The target of assay [1] is Beta-secretase 1 (Homo sapiens) (UniProt P56817). The assay is described as follows: Inhibition of human BACE1 at 10 uM incubated for 60 mins using rhodamine-EVNLDAEFK-quencher substrate by FRET assay.
Assay [2] deals with T1, Cannabinoid receptor (Mus musculus) (UniProt P47746+P47936). The assay is described as follows: Agonist activity at cannabinoid receptor in ICR mouse vas deferens assessed as inhibition of electrically induced contractions at 3 x 10^-7 M after 10 mins in presence of CB1 antagonist AM251 relative to control. Type of assay: protein assay.
T1 sequence (P47746 whole entry, looked up): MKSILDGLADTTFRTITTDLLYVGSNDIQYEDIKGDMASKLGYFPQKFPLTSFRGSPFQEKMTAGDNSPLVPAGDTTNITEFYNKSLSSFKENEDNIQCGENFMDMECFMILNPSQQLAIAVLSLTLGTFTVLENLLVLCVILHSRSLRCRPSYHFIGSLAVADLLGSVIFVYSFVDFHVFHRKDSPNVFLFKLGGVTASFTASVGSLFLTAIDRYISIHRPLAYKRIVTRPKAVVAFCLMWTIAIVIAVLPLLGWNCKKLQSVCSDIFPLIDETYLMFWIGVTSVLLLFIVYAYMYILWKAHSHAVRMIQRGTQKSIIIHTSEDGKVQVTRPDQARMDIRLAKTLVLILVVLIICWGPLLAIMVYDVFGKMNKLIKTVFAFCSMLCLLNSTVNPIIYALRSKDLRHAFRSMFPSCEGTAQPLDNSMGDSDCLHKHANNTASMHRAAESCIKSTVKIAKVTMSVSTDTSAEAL
T1 sequence (P47936 whole entry, looked up): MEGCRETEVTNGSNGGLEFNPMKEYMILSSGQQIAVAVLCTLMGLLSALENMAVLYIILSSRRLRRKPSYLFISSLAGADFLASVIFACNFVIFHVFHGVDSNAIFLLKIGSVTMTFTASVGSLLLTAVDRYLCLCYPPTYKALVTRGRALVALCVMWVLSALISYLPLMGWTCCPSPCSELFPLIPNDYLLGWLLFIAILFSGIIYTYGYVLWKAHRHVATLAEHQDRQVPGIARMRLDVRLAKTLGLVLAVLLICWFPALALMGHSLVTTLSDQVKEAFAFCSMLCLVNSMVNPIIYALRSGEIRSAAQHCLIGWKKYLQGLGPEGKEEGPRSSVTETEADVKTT
The target of assay [3] is T1, Cannabinoid receptor (Mus musculus). The assay is described as follows: Agonist activity at cannabinoid receptor in ICR mouse vas deferens assessed as inhibition of electrically induced contractions at 9 x 10^-7 M after 10 mins in presence of CB2 antagonist AM630 relative to control. Type of assay: protein assay.
Assay [4] shares this target. The assay is described as follows: Agonist activity at cannabinoid receptor in ICR mouse vas deferens assessed as inhibition of electrically induced contractions at 1.82 x 10^-5 M after 10 mins in presence of CB2 antagonist AM630 relative to control. Type of assay: protein assay.
Assay [5] has the same target. The assay is described as follows: Agonist activity at cannabinoid receptor in ICR mouse vas deferens assessed as inhibition of electrically induced contractions at 10^-7 M after 10 mins in presence of CB2 antagonist AM630 relative to control. Type of assay: protein assay.
Assay [6] has the same target. Nature of the assay: Agonist activity at cannabinoid receptor in ICR mouse vas deferens assessed as inhibition of electrically induced contractions at 9 x 10^-7 M after 10 mins relative to control. Type of assay: protein assay.
Another assay concerns the target Acetylcholinesterase (Homo sapiens, UniProt P22303). Nature of the assay: Inhibition of human erythrocyte AChE using acetylthiocholine as substrate by Ellman's assay.
Assay [7] concerns the target T1, Cannabinoid receptor (Mus musculus). The assay is described as follows: Agonist activity at cannabinoid receptor in ICR mouse vas deferens assessed as inhibition of electrically induced contractions at 9 x 10^-7 M after 10 mins in presence of CB1 antagonist AM251 relative to control. It is filed as protein assay.
For assay [8] the target is unchanged. Nature of the assay: Agonist activity at cannabinoid receptor in ICR mouse vas deferens assessed as inhibition of electrically induced contractions at 8.1 x 10^-6 M after 10 mins in presence of CB1 antagonist AM251 relative to control. It is filed as protein assay.
The target is the same in assay [9]. The assay is described as follows: Agonist activity at cannabinoid receptor in ICR mouse vas deferens assessed as inhibition of electrically induced contractions at 8.1 x 10^-6 M after 10 mins in presence of CB2 antagonist AM630 relative to control. Type of assay: protein assay.
Assay [10] is described as follows: Antioxidant activity assessed as trolox equivalent of APPH-induced radical scavenging activity by ORAC-FL assay. Type of assay: functional.
In assay [11] the target is T1, Cannabinoid receptor (Mus musculus). The assay is described as follows: Agonist activity at cannabinoid receptor in ICR mouse vas deferens assessed as inhibition of electrically induced contractions at 1.82 x 10^-5 M after 10 mins relative to control. It is filed as protein assay.
Assay [12] has the same target. The assay is described as follows: Agonist activity at cannabinoid receptor in ICR mouse vas deferens assessed as inhibition of electrically induced contractions at 2.7 x 10^-6 M after 10 mins relative to control. It is filed as protein assay.
Assay [13] shares this target. The assay is described as follows: Agonist activity at cannabinoid receptor in ICR mouse vas deferens assessed as inhibition of electrically induced contractions at 1.82 x 10^-5 M after 10 mins in presence of CB1 antagonist AM251 relative to control. Type of assay: protein assay.
Assay [14] has the same target. The assay is described as follows: Agonist activity at cannabinoid receptor in ICR mouse vas deferens assessed as inhibition of electrically induced contractions at 8.1 x 10^-6 M after 10 mins relative to control. It is filed as protein assay.
The target is the same in assay [15]. Nature of the assay: Agonist activity at cannabinoid receptor in ICR mouse vas deferens assessed as inhibition of electrically induced contractions at 3 x 10^-7 M after 10 mins relative to control. It is filed as protein assay.
For assay [16] the target is unchanged. The assay is described as follows: Agonist activity at cannabinoid receptor in ICR mouse vas deferens assessed as inhibition of electrically induced contractions at 2.7 x 10^-6 M after 10 mins in presence of CB2 antagonist AM630 relative to control. It is filed as protein assay.
The target is the same in assay [17]. The assay is described as follows: Agonist activity at cannabinoid receptor in ICR mouse vas deferens assessed as inhibition of electrically induced contractions at 10^-7 M after 10 mins relative to control. It is filed as protein assay.
The target is the same in assay [18]. The assay is described as follows: Agonist activity at cannabinoid receptor in ICR mouse vas deferens assessed as inhibition of electrically induced contractions at 2.7 x 10^-6 M after 10 mins in presence of CB1 antagonist AM251 relative to control. It is filed as protein assay.
Assay [19] has the same target. Nature of the assay: Agonist activity at cannabinoid receptor in ICR mouse vas deferens assessed as inhibition of electrically induced contractions at 10^-7 M after 10 mins in presence of CB1 antagonist AM251 relative to control. Type of assay: protein assay.
The next assay deals with Cholinesterase (Homo sapiens, UniProt P06276). Nature of the assay: Inhibition of human serum BChE using butyrylthiocholine as substrate by Ellman's assay.
Sequence of Cholinesterase (P06276 whole entry): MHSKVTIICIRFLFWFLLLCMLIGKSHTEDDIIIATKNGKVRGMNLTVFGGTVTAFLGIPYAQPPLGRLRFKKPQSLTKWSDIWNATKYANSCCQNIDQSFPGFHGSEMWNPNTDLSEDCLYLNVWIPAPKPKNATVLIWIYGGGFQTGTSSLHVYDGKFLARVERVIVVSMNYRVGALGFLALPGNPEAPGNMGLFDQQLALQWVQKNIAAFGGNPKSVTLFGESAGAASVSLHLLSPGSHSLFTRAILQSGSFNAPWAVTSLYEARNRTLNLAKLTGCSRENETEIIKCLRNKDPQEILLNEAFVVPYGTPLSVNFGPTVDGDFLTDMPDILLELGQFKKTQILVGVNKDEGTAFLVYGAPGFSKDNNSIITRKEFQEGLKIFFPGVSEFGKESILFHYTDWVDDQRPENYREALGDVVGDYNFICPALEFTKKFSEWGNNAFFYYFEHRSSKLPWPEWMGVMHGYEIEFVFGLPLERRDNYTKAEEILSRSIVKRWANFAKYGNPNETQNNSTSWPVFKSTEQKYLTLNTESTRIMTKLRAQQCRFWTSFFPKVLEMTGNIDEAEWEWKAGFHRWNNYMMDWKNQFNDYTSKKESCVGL
Assay [20] addresses T1, Cannabinoid receptor (Mus musculus). The assay is described as follows: Agonist activity at cannabinoid receptor in ICR mouse vas deferens assessed as inhibition of electrically induced contractions at 3 x 10^-7 M after 10 mins in presence of CB2 antagonist AM630 relative to control. Type of assay: protein assay.

The structures appear in SMILES notation. Activity calls are given as the source filed them. No cut-off for these calls is given here.

Sequence of Beta-secretase 1 (Homo sapiens) (P56817 whole entry): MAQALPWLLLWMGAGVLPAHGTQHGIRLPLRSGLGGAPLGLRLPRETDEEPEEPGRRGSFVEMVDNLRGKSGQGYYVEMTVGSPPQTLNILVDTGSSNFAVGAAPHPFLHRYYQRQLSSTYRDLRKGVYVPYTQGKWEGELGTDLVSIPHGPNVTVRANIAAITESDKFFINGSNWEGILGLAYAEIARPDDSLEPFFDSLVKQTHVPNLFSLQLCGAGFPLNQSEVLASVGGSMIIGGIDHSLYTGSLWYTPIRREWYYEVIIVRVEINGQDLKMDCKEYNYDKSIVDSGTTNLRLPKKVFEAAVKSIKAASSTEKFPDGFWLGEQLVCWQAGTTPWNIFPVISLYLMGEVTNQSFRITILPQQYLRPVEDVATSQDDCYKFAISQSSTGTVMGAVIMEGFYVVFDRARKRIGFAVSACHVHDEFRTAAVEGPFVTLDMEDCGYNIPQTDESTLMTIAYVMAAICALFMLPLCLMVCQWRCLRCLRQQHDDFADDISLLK
Sequence of Acetylcholinesterase (P22303 whole entry): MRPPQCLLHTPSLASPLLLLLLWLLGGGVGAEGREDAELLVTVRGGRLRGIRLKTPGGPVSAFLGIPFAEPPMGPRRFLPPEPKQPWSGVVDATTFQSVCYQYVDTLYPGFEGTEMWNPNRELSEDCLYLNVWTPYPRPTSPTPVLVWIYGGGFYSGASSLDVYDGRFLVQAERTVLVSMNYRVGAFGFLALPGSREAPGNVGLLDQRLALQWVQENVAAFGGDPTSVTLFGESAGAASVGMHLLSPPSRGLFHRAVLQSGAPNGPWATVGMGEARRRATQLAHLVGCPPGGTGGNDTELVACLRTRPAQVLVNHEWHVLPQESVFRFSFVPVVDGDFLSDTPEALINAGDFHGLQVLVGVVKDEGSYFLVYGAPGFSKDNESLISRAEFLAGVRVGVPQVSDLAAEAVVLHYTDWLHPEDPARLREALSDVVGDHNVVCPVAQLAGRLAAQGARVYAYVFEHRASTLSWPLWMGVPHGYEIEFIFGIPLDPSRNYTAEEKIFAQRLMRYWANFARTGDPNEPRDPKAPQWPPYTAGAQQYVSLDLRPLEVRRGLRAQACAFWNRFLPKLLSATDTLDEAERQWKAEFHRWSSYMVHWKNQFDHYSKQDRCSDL

Consider `O=C(c1ccccc1OCc1ccccc1)n1nc(OCCN2CCCC2)c2ccccc21`, for which the inhibition was 32% in assay [1]; -0.5% in [2]; 2.7% in assay [3]; 76.7% in [4]; -4% in [5]; 7.7% in [6]. For the same molecule, the inhibition in [7] was determined as 1.3%; in [8], 38.8%; in assay [9], 47.2%; in [11] it was 68.1%; in assay [12], 10.4%; in assay [13], 71.2%. The inhibition in assay [14] is 32.5%; in [15] it was 3.7%; in assay [16], 10.3%; in assay [17], 1.2%; in assay [18], 5.9%; in assay [19], -1.9%. The inhibition in assay [20] was -1.6%. The values for the IC50 on Acetylcholinesterase and against Cholinesterase were greater than 10 µM and 0.39 µM, respectively. In [10], the outcome was inactive.
`O=C(c1cccc(Cl)c1Cl)n1nc(OCCN2CCCCC2)c2ccccc21`: the inhibition was 18.1% in assay [1]; -0.9% in assay [2]; 2.4% in assay [3]; 78.2% in assay [4]; -1.2% in assay [5]; 15.6% in assay [6]. In addition, the inhibition in assay [7] was 1%; in assay [8] it was 23.5%; in [9] it was 60.2%; in [11], 87.2%; in assay [12], 29.4%; in assay [13], 43.4%. In addition, the inhibition in [14] was 80.5%; in assay [15], 3.8%; in assay [16], 8.6%; in [17], 1.3%; in assay [18], 3.1%; in assay [19], -1.8%. Further, the inhibition in assay [20] was -1.3%. The half-maximal inhibitory concentration (IC50) on Acetylcholinesterase stood at 10.5 µM; at Cholinesterase, 0.6 µM. For the same molecule, the outcome in assay [10] was inactive.
Consider `O=C(c1ccccc1Cl)n1nc(OCCCN2CCCCC2)c2ccccc21`, for which the inhibition in assay [1] was 12%; in assay [2] it was -0.4%; in assay [3], 6.2%; in assay [4], 79.8%; in assay [5], -7.9%; in assay [6] it was 8.9%. Further, the inhibition in assay [7] is 4.7%; in assay [8], 51.5%; in assay [9] it was 34.3%; in assay [11], 87.3%; in assay [12], 13%; in assay [13], 88.2%. The inhibition in [14] is 42.8%; in assay [15], 2.8%; in [16] it was 9.3%; in [17] it was -2.2%; in assay [18], 10.7%; in assay [19], -1.7%. Also, the inhibition in assay [20] is -7%. In addition, the IC50 is 9.7 µM at Acetylcholinesterase and 0.07 µM on Cholinesterase. In addition, in assay [10], the Activity came to 0.28 equiv.
`COc1cc(C(=O)n2nc(OCCN3CCCC3)c3ccccc32)cc(OC)c1OC`: the inhibition in assay [1] is 6%; in assay [2], 6%; in [3], 4.1%; in assay [4], 69.5%; in assay [5], -1%; in assay [6], 14.6%. The inhibition in [7] stood at 5.6%; in [8], 42.4%; in assay [9] it was 40%; in assay [11], 78%; in assay [12], 26.9%; in assay [13], 74%. For the same molecule, the inhibition in assay [14] was 49.7%; in [15], 7%; in assay [16], 10.9%; in assay [17], 3.2%; in [18], 15%; in [19] it was -0.7%. Also, in assay [20], the inhibition was 0.8%. Besides, the IC50 at Acetylcholinesterase is 11.6 µM; against Cholinesterase, greater than 10 µM. Also, the outcome in assay [10] was inactive.
As to `Cc1c(C(=O)c2cccc3ccccc23)c2cccc3c2n1[C@H](CN1CCOCC1)CO3`, the inhibition in [2] is -2.7%; in [3], 22%; in [4], 68.9%; in assay [5], -1.1%; in assay [6] it was 54.5%; in [7], 2%. Moreover, the inhibition in assay [8] is 31.9%; in [9] it was 54.8%; in assay [11] it was 81.3%; in [12] it was 61.8%; in assay [13], 52%; in [14] it was 71.4%. Further, the inhibition is 32.7% in [15]; 33.2% in assay [16]; 17.8% in assay [17]; 11.5% in assay [18]; -3.9% in [19]; 2% in assay [20].
On to `COc1ccc(CC(=O)n2nc(OCCN3CCCC3)c3ccccc32)cc1`, for which the inhibition in [1] was 17%; in assay [2] it was -0.9%; in assay [3] it was 6.4%; in assay [4] it was 78.6%; in assay [5], 0.1%; in [6], 13.7%. The inhibition is 2.4% in assay [7]; 44.3% in assay [8]; 47.9% in assay [9]; 76.9% in assay [11]; 23.4% in [12]; 78.6% in assay [13]. The inhibition in assay [14] was 50.3%; in [15], 7.9%; in assay [16], 14%; in assay [17], 2.4%; in assay [18], 12.2%; in assay [19] it was -1.7%. The inhibition in assay [20] worked out at 3.3%. In addition, the values for the IC50 against Acetylcholinesterase and against Cholinesterase were greater than 10 µM and 9 µM, respectively. The result in assay [10] was inactive.
For the molecule `O=C(c1cccc(F)c1F)n1nc(OCCN2CCCC2)c2ccccc21`, the inhibition is 14% in assay [1]; -1.2% in assay [2]; 3.7% in assay [3]; 30.1% in assay [4]; -3.8% in assay [5]; 11% in assay [6]. Further, the inhibition was 4.9% in assay [7]; 23.3% in assay [8]; 21.2% in assay [9]; 49.4% in [11]; 24.1% in assay [12]; 29.9% in assay [13]. Besides, the inhibition is 37.5% in assay [14]; 3.6% in assay [15]; 13.2% in assay [16]; 0.8% in assay [17]; 12.5% in assay [18]; -1.6% in [19]. The inhibition in [20] is -2.8%. Moreover, the IC50 on Acetylcholinesterase and against Cholinesterase was 11 µM each time. Also, the outcome in assay [10] was inactive.
As for `Cc1c(C(=O)NN2CCCCC2)nn(-c2ccc(Cl)cc2Cl)c1-c1ccc(I)cc1`, the inhibition is -2% in [2]; 12.1% in assay [7]; 72.7% in [8]; 84.6% in assay [13]; 38.4% in assay [18]; -7.3% in [19].

Source of the values: ChEMBL document CHEMBL4400519, “Indazolylketones as new multitarget cannabinoid drugs” (Eur J Med Chem, 2019).
